Measurements reported in the NIST ThermoML archive (doi:10.1016/j.jct.2014.01.016).

Conditions: 298.15 K; Liquid; Gas chromatography

Row | Compound | vapor or sublimation pressure
1 | CCC1CCC(=O)O1 (stereo unspecified) [2(3H)-furanone, 5-ethyldihydro-] | 0.0225 kPa
2 | CCCCCC1CCC(=O)O1 (stereo unspecified) [2(3H)-furanone, dihydro-5-pentyl-] | 0.00097 kPa
3 | CCCCCC1CCCC(=O)O1 (stereo unspecified) [2H-pyran-2-one, tetrahydro-6-pentyl-] | 0.00027 kPa
4 | CCCC1CCCC(=O)O1 (stereo unspecified) [2H-pyran-2-one, tetrahydro-6-propyl-] | 0.00221 kPa
5 | CCCCCCC1CCC(=O)O1 (stereo unspecified) [γ-decalactone] | 0.00033 kPa
6 | CCCCCCCCC1CCC(=O)O1 (stereo unspecified) [γ-dodecanolactone] | 4e-05 kPa
7 | CCCCC1CCC(=O)O1 (stereo unspecified) [γ-octanolactone] | 0.00278 kPa
8 | CCCCCCCC1CCC(=O)O1 (stereo unspecified) [γ-undecanolactone] | 0.00012 kPa
9 | CCCCCCCC1CCCC(=O)O1 (stereo unspecified) [δ-dodecanolactone] | 3e-05 kPa
10 | CCCCC1CCCC(=O)O1 (stereo unspecified) [δ-nonanolactone] | 0.00076 kPa
11 | CCCCCCC1CCCC(=O)O1 (stereo unspecified) [δ-undecanolactone] | 9e-05 kPa
